# According to patent publication US20230286982A1, “PROTEASOME ENHANCERS AND USES THEREOF” (Board of Trustees of Michigan State University, priority 2020, published 2023):
# “Also recorded” adds a separate entry of the source.
# Columns and labels:
# [1] = molecular target: T1, human constitutive 20S proteasome impaired by amyloid beta oligomer mixture (Homo sapiens, UniProt P25787+P25789); assay: IDP oligomer inhibition in fluorogenic peptide degradation assay (amyloid beta oligomers); type: biochemical; details: 1-10 μM, concentration dependent; CT-L substrate; 2.5 μM amyloid beta
# T1 construct: purchased Boston Biochem, Inc. (Cambridge, Mass.)
# Description: Amylold beta aggregate preparation. Synthetic amyloid beta was purchased from Eurogentec. To remove preexisting aggregates, synthetic amyloid beta peptide was dissolved in 100% hexafluoroisopropanol (HFIP) and incubated at 37° C. for 2 h. The HFIP was removed and the remaining peptide films were stored at −80° C. until use. Aggregates were prepared by resuspending amyloid beta films with DMSO (50 μL per 1 mg of peptide), followed by addition of ultrapure H2O (800 μL) and rapid addition of 2 M Tris-base (10 μL) at pH 7.6. The solution was then vortexed for 5 seconds and allowed to incubate at room temperature for 5 minutes. The Amyloid beta mixture was then diluted to the desired concentration and used immediately.
# IDP oligomer Inhibition in fluorogenic peptide degradation assay. Assays were carried out in a 100 μL reaction volume. […] The enzymatic activity was measured at 37° C. on a SpectraMax M5e spectrometer by measuring the change in fluorescence unit per minute for 1 hour at 380-460 nm. The fluorescence units for the vehicle control were set at a 100%, and the ratio of drug-treated or just oligomer-treated samples to the vehicle control was used to calculate the relative enzymatic activity.
# [2] = molecular target: T2, purified human 20S proteasome (Homo sapiens, UniProt P25787+P25789); assay: In vitro purified α-synuclein oligomer degradation assay (western blot); type: biochemical; details: 24 hours incubation with 20S proteasome
# T2 construct: purchased Boston Biochem, Inc. (Cambridge, Mass.)
# Description: In vitro purified α-synuclein oligomer degradation assay (western blot). Digestion of α-synuclein oligomer mixture was carried out in a 50 μL reaction volume made of 50 mM Tris at pH 7.8; 0.33 μM α-synuclein oligomer mixture and 6.7 nM purified human 20S proteasome. Briefly, 20S proteasome was diluted to 7.58 nM in the reaction buffer. Fluspirilene or vehicle (1 μL of 50×stock or DMSO) were added to 44 μL of 7.58 nM 20S and incubated at 37° C. for 20 min. The substrate (5 μL of 3.3 μM synuclein oligomer mixture) was then added to the reaction mixture and incubated at 37° C. for 24 hours. The reactions were then quenched with concentrated SDS loading buffer. Samples were resolved on a 4-20% Tris-glycine SDS-PAGE and immunoblotted with mouse monoclonal anti α-synuclein IgG (1:2000) and anti-mouse HRP-linked IgG (1:2000). Blots were developed with ECL western reagent and imaged with an Azure Biosystems 3000 imager.
# [3] = test system: A53T α-synuclein in transiently transfected HEK-293T cells; assay: A53T α-synuclein digestion in HEK-293T cells; type: cell-based, human; details: for accumulation of A53T α-synuclein protein: 10 or 30 μM, 8 hours, with cycloheximide 100 μg/mL, concentration dependent
# Description: Cell culture. Human embryonic kidney cells (HEK293T) were maintained in Dulbecco's modified Eagle's medium (DMEM) supplemented with 10% fetal bovine serum and 100 units/mL penicillin/streptomycin, at 37° C. with 5% CO2.
# Transient transfection of A53T α-synuclein plasmid Into HEK-293T cells. Cells were grown according using the methods stated above to ˜50-70% confluency. At this point plasmid prepared with Xfect transfection agent (prepared following manufacturers protocol) was added to the HEK-293 cells and incubated for 4 hours. The media was then replaced with fresh culture media and the cells were returned to the incubator for 24 hours prior to treatment.
# A53T α-synuclein digestion in HEK-293T cells. HEK-293T cells were transfected as described above and incubated for 24 hours. The cells were then treated with 100 μg/mL of cycloheximide, in combination with either vehicle (DMSO), fluspirilene (10 or 30 μM), N-acylated fluspirilene (10 or 30 μM), bortezomib (100 nM), or a combination thereof for 8 hours. The cells were then lysed using RIPA buffer and the manufacturers protocol. A BCA assay was performed to quantify protein levels and the lysates were normalized to desired concentrations prior to electrophoresis and western blot analysis, performed as described previously.
# [4] = molecular target: 26S proteasome (Homo sapiens, UniProt P25787+P25789); assay: Proteolysis of fluorogenic peptide substrates by purified 26S proteasome; type: biochemical; details: 0-80 μM
# Description: FIG. 1A is a plot showing the rate of proteolysis of fluorogenic peptide substrates by purified 20S and 26S proteasome in the presence of a concentration response (0-80 μM) of fluspirilene. […] Error bars denote standard deviation.
# The small molecule antipsychotic drug fluspirilene was identified as a promising new scaffold for the development of 20S activators due to its strong enhancement of 20S proteolysis. To assess fluspirilene's 20S proteasome activity, a series of assays were performed using each of three fluorogenic peptide substrates. These substrates were a chymotryptic-like (CT-L), a trypsin-like (T-L) and a caspase-like (Casp-L) substrate, one for each of the catalytic sites of the proteasome. It has been shown that the proteasome's active sites allosterically regulate each other in the presence of their individual substrates. Therefore, a combination of the three probes to represent the overall activity of a 20S activator more accurately in a system in which all catalytic sites are interacting.
# [5] = molecular target: T3, human constitutive 20S proteasome impaired by α-synuclein oligomer mixture (Homo sapiens, UniProt P25787+P25789); assay: IDP oligomer inhibition in fluorogenic peptide degradation assay (α-synuclein oligomers); type: biochemical; details: 1-10 μM, concentration dependent; CT-L substrate; 500 nM α-synuclein oligomers
# T3 construct: purchased Boston Biochem, Inc. (Cambridge, Mass.)
# Description: IDP oligomer Inhibition in fluorogenic peptide degradation assay. Assays were carried out in a 100 μL reaction volume. Different concentrations (1-10 μM) of test compounds were added to a black flat/clear bottom 96-well plate containing 1 nM of human constitutive 20S proteasome, in 50 mM Tris-HCl at pH 7.8 and allowed to incubate for 15 min at 37° C. Then, 1 μL of α-synuclein or amyloid beta oligomer mixture of was added to each sample to a final concentration of 500 nM for α-synuclein and 2.5 μM for amyloid beta. This mixture was then allowed to incubate again for 15 min at 37° C. Next, 10 μL of CT-L fluorogenic substrate was added to a final concentration of 20 μM. The enzymatic activity was measured at 37° C. on a SpectraMax M5e spectrometer by measuring the change in fluorescence unit per minute for 1 hour at 380-460 nm. The fluorescence units for the vehicle control were set at a 100%, and the ratio of drug-treated or just oligomer-treated samples to the vehicle control was used to calculate the relative enzymatic activity.
# [6] = molecular target: T4, human constitutive 20S proteasome (Homo sapiens, UniProt P25787+P25789); assay: Fluorogenic peptide degradation 20S proteasome activity assay; type: biochemical; details: for 20S proteasome activity (in words): 0-80 μM; for AC200 (concentration achieving a doubling of 20S activity): combination of the three fluorogenic substrates (CT-L, T-L, Casp-L)
# T4 construct: purchased Boston Biochem, Inc. (Cambridge, Mass.)
# Description: Fluorogenic peptide degradation 20S proteasome activity assay. Activity assays were carried out in a 100 μL reaction volume. Different concentrations (1-80 μM) of test compounds were added to a black flat/clear bottom 96-well plate containing 1 nM of human constitutive 20S proteasome, in 50 mM Tris-HCl at pH 7.8, 100 mM NaCl and allowed to incubate for 15 min at 37° C. Fluorogenic substrates were then added and the enzymatic activity measured at 37° C. on a SpectraMax M5e spectrometer by measuring the change in fluorescence unit per minute for 1 hour at 380-460 nm. The fluorescence units for the vehicle control were set at a 100%, and the ratio of drug-treated sample set to that of vehicle control was used to calculate the fold change in enzymatic activity. The fluorogenic substrates used were one of the following: Suc-LLVY-AMC (CT-L activity, 20 μM), Z-LLE-AMC (Casp-L activity, 20 μM), Boc-LRR-AMC (T-L activity, 40 μM) or a combination of the three substrates each at 6.67 μM.
# [7] = molecular target: dopamine D2 receptor (Homo sapiens, UniProt P14416); details: cited from earlier work
# [8] = combination of the three catalytic site substrates
# Chain of dopamine D2 receptor (P14416 whole entry, species assumed): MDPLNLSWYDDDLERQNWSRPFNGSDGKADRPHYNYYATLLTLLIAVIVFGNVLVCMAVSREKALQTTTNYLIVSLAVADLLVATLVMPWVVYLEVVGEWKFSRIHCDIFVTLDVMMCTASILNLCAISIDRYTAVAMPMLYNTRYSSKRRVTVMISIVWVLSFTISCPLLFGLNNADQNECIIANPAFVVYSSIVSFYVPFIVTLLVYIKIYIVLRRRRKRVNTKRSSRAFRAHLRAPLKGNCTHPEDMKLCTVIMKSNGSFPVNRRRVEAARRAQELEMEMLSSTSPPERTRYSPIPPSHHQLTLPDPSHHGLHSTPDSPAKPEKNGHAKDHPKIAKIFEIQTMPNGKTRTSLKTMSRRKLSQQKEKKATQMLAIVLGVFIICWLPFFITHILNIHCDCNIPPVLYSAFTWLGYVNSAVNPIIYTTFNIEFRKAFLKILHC
Structure (SMILES),prevention of 20S impairment by amyloid beta oligomers [1],remaining α-syn oligomers relative to vehicle control [2],accumulation of A53T α-synuclein protein [3],enhancement of the proteolytic activity of the 26S proteasome [4],prevention of 20S impairment by α-syn oligomers [5],"activation of the catalytic sites of the 20S proteasome ([6]; CT-L, T-L and Casp-L substrates)","maximum fold enhancement ([6]; combination of probes, over vehicle control) [fold]","20S proteasome activity (in words) [6, 8]",AC200 (concentration achieving a doubling of 20S activity) [6] [µM],dopamine D2 receptor antagonism [7],effect on A53T α-synuclein when proteasome activity is blocked ([3]; in combination with bortezomib (100 nM)),"maximum fold enhancement [6, 8] [%]","max fold increases, increase over vehicle ([6]; for each substrate/combination) [%]",activation of the CT-L site relative to fluspirilene ([6]; individual CT-L fluorescent peptide probe),AC200 at the CT-L site ([6]; individual CT-L substrate (Suc-LLVY-AMC)) [µM],AC200 at the Casp-L site ([6]; individual Casp-L substrate (Z-LLE-AMC)) [µM],activation of the T-L site relative to fluspirilene ([6]; individual T-L fluorescent peptide probe)
"O=C1NCN(c2ccccc2)C12CCN(CCCC(c1ccc(F)cc1)c1ccc(F)cc1)CC2 [Fluspirilene, fluspirilene, reference compound]",prevented 20S impairment,reduction in overall α-syn oligomers,effectively reduced the accumulation,did not enhance,prevented 20S impairment,activates all three catalytic sites,~10,promising,2.2,potent,,,,,,,
O=C1NCN(c2ccccc2)C12CCN(CCC=C(c1ccc(F)cc1)c1ccc(F)cc1)CC2 [Compound 11],,,,,,,,lessened activity; also recorded: moderate activity,,,,,,,,,
O=C(CCC(c1ccc(F)cc1)c1ccc(F)cc1)N1CCC2(CC1)C(=O)NCN2c1ccccc1 [Compound 16],prevented 20S impairment,reduction in overall α-syn oligomers,effectively reduced the accumulation,,prevented 20S impairment,,,promising; also recorded: excellent activity,1.9,,abrogated,> 2000,> 1500,reduced activation,4.7,4.1,better activation
